From patent US10702484B2, “Use of 3-(3-hydroxy-4-methoxy-phenyl)-1-(2,4,6-trihydroxy-phenyl) propan-1-one” (SYMRISE AG, priority 2016, dated 2020)

What was measured:
[1] = tested on: group of experts; assay: Intensification of the sweet impression of a sugar solution (sensory panel rating); type: in vivo
Text: In order to quantify the intensification of the sweet impression, in each case the sweetness of a 5% sucrose solution was compared by a group of experts with a specimen containing 5% sucrose and 1 ppm, 5 ppm, 7 ppm or 10 ppm of the hesperetin dihydrochalcone (I) to be used according to the invention (rating: 1 [not sweet] to 10 [extremely sweet]). For comparison issues, the intensification of the sweet impression containing with a specimen containing 5% sucrose and 10 ppm or 25 ppm deoxy hesperetin dihydrochalcone is also included.
For the assessment, i.e. calculation of the intensification (in %) of the sweet impression in each case the average values of the assessments of the group of experts for the sucrose solution and the specimen for comparison containing sucrose and hesperetin dihydrochalcone (I) or deoxy hesperetin dihydrochalcone were used.

[2] = tested on: group of experts; assay: Bitter-reduction of a bitter substance solution (sensory panel rating); type: in vivo; conditions: for Bitter impression of bitter substance + compound (I) (average values): n=18
Text: In order to quantify the decrease (i.e. the masking or reduction) in bitter impression in a specimen, the bitterness of a solution containing different bitter tasting substances in specific concentrations was compared by a group of experts (n=18) in each case with a specimen having an equivalent composition and additionally a specific concentration of hesperetin dihydrochalcone (I) (rating: 1 [not bitter] to 100 [extremely bitter]).
For the assessment, i.e. the calculation of the reduction (in %) of the bitter impression in each case the average values of the assessments of the group of experts for the respective bitter substance solution and the bitter substance solution also containing 10 ppm hesperetin dihydrochalcone (I) were used (*sign.lev. α=0.05). For comparison issues, the calculation of the reduction (in %) of the bitter impression for the respective bitter substance solution containing deoxy hesperetin dihydrochalcone is also included.

[3] = in soft drinks; purity>90%; cited from earlier work
[4] = tested on: group of experts; assay: Modification of the sweet profile of a sucrose solution (sensory panel); type: in vivo; conditions: for Beginning of sweet impression (<2 sec) / Overall sweet impression / Sugar full flavour and taste: n=12
Text: The taste profile of a 7 wt % aqueous sucrose solution was compared with by a group of experts (n=12) in each case with a specimen having an equivalent composition and additionally a 1.5% sucrose (B), 5 ppm, 7 ppm or 20 ppm hesperetin dihydrochalcone (I).

[5] = J. Chem. Senses 1979, 4(1), 35-47; cited from earlier work
[6] = tested on: group of 30 experts; assay: Intrinsic sweetness, two-alternative forced choice (2AFC) test; type: in vivo; conditions: 10 ppm in water, α=0.05
Text: A group of 30 experts were asked in a two-alternative forced choice (2AFC) test to select the solution with the stronger sweet impression from a couple of solutions. The evaluated solutions-couples are selected from a group of solutions consisting of a solution of hesperetin dihydrochalcone (I) in water (20 ppm, 15 ppm, 12.5 ppm, and 10 ppm) and a 1.5 wt % aqueous sucrose solution.

[7] = tested on: group of experts; assay: Modulation of the cooling-profile of WS-3 (sensory panel); type: in vivo; conditions: 1 ppm added to aqueous solution of 5 wt % sucrose and 4 ppm WS-3; n=5
Text: A group of experts (n=5) evaluated the influence on the cooling profile of an aqueous solution containing 5 wt % sucrose and 4 ppm WS-3.

[8] = tested on: group of experts; assay: Improvement of the taste profile of chicken flavour (sensory panel); type: in vivo; conditions: addition of 2 ppm; n=3
Text: A group of experts (n=3) evaluated the influence on the taste profile of a chicken flavour with the typical descriptors of chicken meat note, boiled note, bony, light sour by the addition of 2 ppm hesperetin dihydrochalcone (I).

[9] = in the presence of acids; cited from earlier work
[10] = 5% sucrose + 10 ppm test substance
[11] = 5% sucrose + 10 ppm test substance, rating 1 to 10
[12] = 7% Sucrose-solution + 1.5% Sucrose (=8.5% sucrose solution)
[13] = 7 wt % aqueous sucrose solution

Q: For “deoxy hesperetin dihydrochalcone [reference compound]”, which “Intensification of the sweet impression” value [1, 10] is on record?
A: 21.2%

Q: What about the “Sweet impression (1-10) Specimen (Sucrose + Test substance)” value (“Sweet impression (1-10) Specimen” below) [1, 11] of the same molecule?
A: 6.4

Q: What about the “Intensification of the sweet impression” value ([1]; 5% sucrose + 25 ppm test substance) of the same molecule?
A: 42%

Q: What about the “Sweet impression (1-10) Specimen” value ([1]; 5% sucrose + 25 ppm test substance, rating 1 to 10) of the same molecule?
A: 6.9

Q: What about the “Reduction in bitter impression by adding 50 ppm of deoxy hesperetin dihydrochalcone” value (from here on “Reduction … of deoxy hesperetin dihydrochalcone”) ([2]; 5 ppm Chininhydrochloride) of the same molecule?
A: +10.7%

Q: And the “Reduction of the bitter impression of Chininhydrochloride (in words)” value ([2]; 50 ppm)?
A: no reduction

Q: What about the “Amount necessary, as factor of the amount of hesperetin dihydrochalcone (I), to obtain a similar reduction of the bitter impression” value ([2]; 50 ppm versus 10 ppm) of the same molecule?
A: 5

Q: What about the “Reduction … of deoxy hesperetin dihydrochalcone” value ([2]; 100 ppm Naringin) of the same molecule?
A: −6.6%

Q: And the “Reduction … of deoxy hesperetin dihydrochalcone” value ([2]; 250 ppm Salicin)?
A: −15.2%

Q: And the “Reduction … of deoxy hesperetin dihydrochalcone” value ([2]; 500 ppm Coffeine)?
A: −11.3%

Q: Which “Concentration necessary to achieve a sweetness corresponding to a concentration of sucrose of 10% by weight” value [3] does the source give for `C=C1C[C@@]23CC[C@H]4[C@@](C)(CCC[C@@]4(C)C(=O)O[C@@H]4O[C@H](CO)[C@@H](O)[C@H](O)[C@H]4O)[C@@H]2CC[C@]1(O[C@@H]1O[C@H](CO)[C@@H](O)[C@H](O[C@@H]2O[C@H](CO)[C@@H](O)[C@H](O)[C@H]2O)[C@H]1O[C@@H]1O[C@H](CO)[C@@H](O)[C@H](O)[C@H]1O)C3` [rebaudioside A] here?
A: 400-600 ppm

Q: With `OC[C@H]1O[C@@](CO)(O[C@H]2O[C@H](CO)[C@@H](O)[C@H](O)[C@H]2O)[C@@H](O)[C@@H]1O` [Sucrose, sucrose, reference compound] as the molecule, how does the “Beginning of sweet impression (<2 sec)” value [4, 12] read?
A: 5.74

Q: And the Overall sweet impression [4, 12]?
A: 6.36

Q: And the “Sugar full flavour and taste” value [4, 12]?
A: 5.17

Q: Which “Taste (sweetening power) as presented in the publication” value [5] does the source give for `COc1ccc(CCC(=O)c2ccccc2O)cc1O` [dihydrochalcone (2)] here?
A: intensively sweet tasting

Q: With `COc1ccc(CCC(=O)c2c(O)cccc2O)cc1O` [dihydrochalcone (3)] as the molecule, how does the “Taste (sweetening power) as presented in the publication” value [5] read?
A: tasteless

Q: For `COc1ccc(CCC(=O)c2c(O)cc(O)cc2O)cc1O` [hesperetin dihydrochalcone (I), 3-(3-Hydroxy-4-methoxy-phenyl)-1-(2,4,6-trihydroxyphenyl)propan-1-one], which “Sweet impression compared to the 1.5 wt % aqueous sucrose solution” value [6] is on record?
A: remarkably weaker

Q: And the “Cooling effect (in words)” value [7]?
A: slightly improvement

Q: What about the “Perception of cooling impression (in words)” value [7] of the same molecule?
A: faster

Q: And the “Intensification of the sweet impression” value ([1]; 5% sucrose + 1 ppm test substance)?
A: 14.1%

Q: And the “Sweet impression (1-10) Specimen” value ([1]; 5% sucrose + 1 ppm test substance, rating 1 [not sweet] to 10 [extremely sweet])?
A: 6.1

Q: And the “Intensification of the sweet impression” value ([1]; 5% sucrose + 5 ppm test substance)?
A: 32.6%

Q: What about the “Sweet impression (1-10) Specimen” value ([1]; 5% sucrose + 5 ppm test substance, rating 1 to 10) of the same molecule?
A: 7.1

Q: What about the “Intensification of the sweet impression” value ([1]; 5% sucrose + 7 ppm test substance) of the same molecule?
A: 35.7%

Q: What about the “Sweet impression (1-10) Specimen” value ([1]; 5% sucrose + 7 ppm test substance, rating 1 to 10) of the same molecule?
A: 7.3

Q: What about the “Intensification of the sweet impression” value [1, 10] of the same molecule?
A: 38.6%

Q: What about the “Sweet impression (1-10) Specimen” value [1, 11] of the same molecule?
A: 7.8

Q: What about the “Intensification of the sweet impression compared to 10 ppm deoxy hesperetin dihydrochalcone (in words)” value ([1]; 5 ppm, 5% sucrose) of the same molecule?
A: clearly higher

Q: And the “Intensification of the sweet impression compared to the same amount of deoxy hesperetin dihydrochalcone (in words)” value ([1]; 10 ppm, 5% sucrose)?
A: remarkable intensification

Q: What about the “Beginning of sweet impression (<2 sec)” value ([4]; 7% Sucrose-solution + 5 ppm) of the same molecule?
A: 4.63

Q: And the Overall sweet impression ([4]; 7% Sucrose-solution + 5 ppm)?
A: 5.24

Q: And the “Sugar full flavour and taste” value ([4]; 7% Sucrose-solution + 5 ppm)?
A: 4.26

Q: What about the “Beginning of sweet impression (<2 sec)” value ([4]; 7% Sucrose-solution + 7 ppm) of the same molecule?
A: 4.78

Q: What about the Overall sweet impression ([4]; 7% Sucrose-solution + 7 ppm) of the same molecule?
A: 5.93

Q: What about the “Sugar full flavour and taste” value ([4]; 7% Sucrose-solution + 7 ppm) of the same molecule?
A: 4.42

Q: And the “Beginning of sweet impression (<2 sec)” value ([4]; 7% Sucrose-solution + 20 ppm)?
A: 4.49

Q: And the Overall sweet impression ([4]; 7% Sucrose-solution + 20 ppm)?
A: 4.90

Q: And the “Sugar full flavour and taste” value ([4]; 7% Sucrose-solution + 20 ppm)?
A: 4.11

Q: And the “Effect on the overall sweet impression (in words)” value [4, 13]?
A: increases

Q: And the “Influence on the beginning of sweet impression (sweet impact) and the perceived sugar full flavour and taste (in words)” value [4, 13]?
A: positive influence

Q: And the “Reduction in bitter impression by adding 10 ppm of compound (I)” value (shortened to “Reduction in bitter impression … (I)”) ([2]; 5 ppm Chininhydrochloride)?
A: −25.0%

Q: And the “Bitter impression of bitter substance + compound (I) (average values)” value (“Bitter impression … (average values)” below) ([2]; 5 ppm Chininhydrochloride + 10 ppm compound (I), rating 1 to 100)?
A: 29.05

Q: And the “Reduction of the bitter impression of Chininhydrochloride (in words)” value ([2]; 10 ppm)?
A: remarkable reduction

Q: And the “Bitter impression … (average values)” value ([2]; 100 ppm Naringin + 10 ppm compound (I), rating 1 to 100)?
A: 46.54

Q: What about the “Reduction in bitter impression … (I)” value ([2]; 100 ppm Naringin, * sign.lev. α=0.05) of the same molecule?
A: −21.5%*

Q: And the “Bitter impression … (average values)” value ([2]; 250 ppm Salicin + 10 ppm compound (I), rating 1 to 100)?
A: 51.40

Q: What about the “Reduction in bitter impression … (I)” value ([2]; 250 ppm Salicin, * sign.lev. α=0.05) of the same molecule?
A: −17.6%*

Q: And the “Reduction in bitter impression … (I)” value ([2]; 300 ppm Theobromine)?
A: −12.4%

Q: And the “Bitter impression … (average values)” value ([2]; 300 ppm Theobromine + 10 ppm compound (I), rating 1 to 100)?
A: 45.01

Q: And the “Reduction in bitter impression … (I)” value ([2]; 500 ppm Coffeine)?
A: −13.8%

Q: And the “Bitter impression … (average values)” value ([2]; 500 ppm Coffeine + 10 ppm compound (I), rating 1 [not bitter] to 100 [extremely bitter])?
A: 37.46

Q: And the “Reduction of the bitter impression of Naringin compared to deoxy hesperetin dihydrochalcone (in words)” value ([2]; Naringin, 10 ppm versus 50 ppm deoxy hesperetin dihydrochalcone)?
A: notable increase in the reduction of the bitter impression

Q: And the “Influence on the taste profile of chicken flavour (chicken meat note, boiled note, bony, light sour)” value [8]?
A: without a negative influence

Q: And the “Mouth fullness of chicken flavour (in words)” value [8]?
A: remarkably enhance

B1: miraculin (protein, UniProt P13087 30-220, looked up)
Miraculin: DSAPNPVLDIDGEKLRTGTNYYIVPVLRDHGGGLTVSATTPNGTFVCPPRVVQTRKEVDHDRPLAFFPENPKEDVVRVSTDLNINFSAFMPCRWTSSTVWRLDKYDESTGQYFVTIGGVKGNPGPETISSWFKIEEFCGSGFYKLVFCPTVCGSCKVKCGDVGIYIDQKGRRRLALSDKPFAFEFNKTVYF
notes: protein that in the presence of acids transforms the sour impression into a sweet taste impression
Q: For B1, which “Duration of the effect (sour impression transformed into sweet taste impression)” value [9] is on record?
A: 2 to 4 h
